pIC50: −log10 of the molar value. Calls of active or inactive are those of the source. The rule behind the calls is not given here.
What was measured:
[1] = system: Epidermal growth factor receptor (Homo sapiens), P04626+P00533+Q15303+P21860 [L858R]; conditions: Mus musculus; BaF3; dose 10-1000 nM, time 8.0 hrs
[2] = target: RAC-alpha serine/threonine-protein kinase (Mus musculus) (UniProt P31750); experiment: Inhibition of AKT phosphorylation in mouse BaF3 cells harboring L858R mutant assessed as […] phosphorylation at 10 to 1000 nM incubated for 8 hrs by Western blot analysis; type: cell-based; conditions: dose 10-1000 nM
RAC-alpha serine/threonine-protein kinase (Mus musculus), sequence (P31750 whole entry): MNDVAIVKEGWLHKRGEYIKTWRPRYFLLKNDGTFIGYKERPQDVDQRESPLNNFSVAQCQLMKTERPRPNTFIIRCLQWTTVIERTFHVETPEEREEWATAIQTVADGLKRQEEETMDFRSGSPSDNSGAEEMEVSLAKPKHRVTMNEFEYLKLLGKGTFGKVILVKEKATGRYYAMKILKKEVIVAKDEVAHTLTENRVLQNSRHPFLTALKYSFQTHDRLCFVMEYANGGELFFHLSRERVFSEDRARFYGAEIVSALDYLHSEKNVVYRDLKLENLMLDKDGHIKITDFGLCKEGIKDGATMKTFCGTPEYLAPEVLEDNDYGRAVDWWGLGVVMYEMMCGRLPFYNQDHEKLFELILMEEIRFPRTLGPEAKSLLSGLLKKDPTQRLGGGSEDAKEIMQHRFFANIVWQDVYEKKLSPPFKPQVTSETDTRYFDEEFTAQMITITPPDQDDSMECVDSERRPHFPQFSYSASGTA

[3] = target: RAC-alpha serine/threonine-protein kinase (Mus musculus) (UniProt P31750); type: cell-based; conditions: BaF3, dose 10-1000 nM, time 8.0 hrs
[4] = target: Epidermal growth factor receptor (Homo sapiens, UniProt P00533)
Epidermal growth factor receptor (Homo sapiens, UniProt P00533), sequence (P00533 whole entry): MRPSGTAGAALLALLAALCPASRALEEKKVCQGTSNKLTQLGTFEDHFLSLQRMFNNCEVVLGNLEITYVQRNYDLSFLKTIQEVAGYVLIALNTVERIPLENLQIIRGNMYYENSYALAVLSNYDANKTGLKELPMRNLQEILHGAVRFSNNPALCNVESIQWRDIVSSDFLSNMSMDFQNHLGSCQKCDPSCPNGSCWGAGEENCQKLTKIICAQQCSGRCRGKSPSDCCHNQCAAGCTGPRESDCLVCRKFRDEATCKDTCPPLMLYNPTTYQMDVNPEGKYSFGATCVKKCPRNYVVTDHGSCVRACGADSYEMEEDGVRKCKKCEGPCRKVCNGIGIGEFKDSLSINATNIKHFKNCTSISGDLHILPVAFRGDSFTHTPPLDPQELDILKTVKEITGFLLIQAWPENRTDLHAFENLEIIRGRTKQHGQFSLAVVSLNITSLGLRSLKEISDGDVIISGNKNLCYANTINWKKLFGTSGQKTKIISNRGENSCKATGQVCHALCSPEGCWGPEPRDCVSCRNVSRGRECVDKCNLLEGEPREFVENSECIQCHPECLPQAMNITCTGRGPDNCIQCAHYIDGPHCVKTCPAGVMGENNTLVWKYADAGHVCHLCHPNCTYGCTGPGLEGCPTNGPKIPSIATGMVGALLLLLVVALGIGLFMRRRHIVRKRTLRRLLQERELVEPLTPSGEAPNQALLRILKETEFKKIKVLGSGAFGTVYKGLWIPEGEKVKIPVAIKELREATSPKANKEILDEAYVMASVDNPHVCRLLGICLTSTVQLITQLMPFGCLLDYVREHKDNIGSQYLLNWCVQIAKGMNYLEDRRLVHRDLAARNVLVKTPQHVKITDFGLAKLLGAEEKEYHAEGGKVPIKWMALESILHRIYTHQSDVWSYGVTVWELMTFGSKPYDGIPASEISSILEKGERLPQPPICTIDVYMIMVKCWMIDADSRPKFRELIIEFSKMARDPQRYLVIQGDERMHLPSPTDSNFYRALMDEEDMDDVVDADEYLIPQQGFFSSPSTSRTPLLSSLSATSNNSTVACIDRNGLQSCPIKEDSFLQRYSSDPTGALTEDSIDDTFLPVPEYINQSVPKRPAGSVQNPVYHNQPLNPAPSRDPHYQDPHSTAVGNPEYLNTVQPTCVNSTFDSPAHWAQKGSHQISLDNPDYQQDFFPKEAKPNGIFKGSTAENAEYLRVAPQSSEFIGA

[5] = target: Epidermal growth factor receptor (Homo sapiens, UniProt P00533, EX19DEL)
Epidermal growth factor receptor (Homo sapiens, UniProt P00533, EX19DEL), sequence (P00533 whole entry, looked up, stated change not applied): as the sequence (P00533 whole entry) above

[6] = target: Epidermal growth factor receptor (Homo sapiens, UniProt P00533, L858R)
Epidermal growth factor receptor (Homo sapiens, UniProt P00533, L858R), sequence (P00533 25-1210 L858R limits assumed): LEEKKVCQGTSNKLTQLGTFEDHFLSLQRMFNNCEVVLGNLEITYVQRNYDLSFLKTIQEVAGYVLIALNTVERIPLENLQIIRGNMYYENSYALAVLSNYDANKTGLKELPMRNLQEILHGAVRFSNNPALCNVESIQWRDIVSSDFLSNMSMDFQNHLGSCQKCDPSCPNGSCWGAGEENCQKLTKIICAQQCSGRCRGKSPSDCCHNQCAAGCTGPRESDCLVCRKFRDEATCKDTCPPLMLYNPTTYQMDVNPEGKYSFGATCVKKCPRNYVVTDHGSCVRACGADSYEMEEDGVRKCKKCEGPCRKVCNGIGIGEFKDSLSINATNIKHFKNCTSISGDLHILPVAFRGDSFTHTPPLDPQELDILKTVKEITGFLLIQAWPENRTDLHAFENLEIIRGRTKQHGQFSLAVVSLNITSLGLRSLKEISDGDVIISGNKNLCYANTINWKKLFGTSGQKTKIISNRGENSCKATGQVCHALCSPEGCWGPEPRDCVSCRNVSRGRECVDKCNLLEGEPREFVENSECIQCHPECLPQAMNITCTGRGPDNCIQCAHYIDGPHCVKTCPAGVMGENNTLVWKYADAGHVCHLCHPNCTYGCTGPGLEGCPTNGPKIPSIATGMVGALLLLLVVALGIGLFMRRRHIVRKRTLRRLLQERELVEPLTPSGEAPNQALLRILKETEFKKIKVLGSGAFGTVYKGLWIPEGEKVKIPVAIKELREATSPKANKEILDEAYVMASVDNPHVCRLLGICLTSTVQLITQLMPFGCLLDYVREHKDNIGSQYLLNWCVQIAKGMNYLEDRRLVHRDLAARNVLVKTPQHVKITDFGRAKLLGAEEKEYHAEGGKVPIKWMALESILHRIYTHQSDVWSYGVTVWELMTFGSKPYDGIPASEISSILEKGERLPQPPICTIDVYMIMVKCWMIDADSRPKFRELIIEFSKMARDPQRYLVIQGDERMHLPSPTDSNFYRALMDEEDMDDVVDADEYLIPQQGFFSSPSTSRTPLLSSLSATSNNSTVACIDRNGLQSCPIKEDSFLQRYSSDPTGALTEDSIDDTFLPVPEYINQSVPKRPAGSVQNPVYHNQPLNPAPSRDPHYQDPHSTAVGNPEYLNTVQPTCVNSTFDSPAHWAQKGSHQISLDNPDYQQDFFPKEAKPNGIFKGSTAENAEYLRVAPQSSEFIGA

[7] = target: T1, Cyclin-G-associated kinase (Homo sapiens) (UniProt O14976); experiment: Binding affinity to recombinant GAK (unknown origin) assessed as change in melting temperature 10 uM by differential scanning fluorimetry
T1 sequence (whole entry): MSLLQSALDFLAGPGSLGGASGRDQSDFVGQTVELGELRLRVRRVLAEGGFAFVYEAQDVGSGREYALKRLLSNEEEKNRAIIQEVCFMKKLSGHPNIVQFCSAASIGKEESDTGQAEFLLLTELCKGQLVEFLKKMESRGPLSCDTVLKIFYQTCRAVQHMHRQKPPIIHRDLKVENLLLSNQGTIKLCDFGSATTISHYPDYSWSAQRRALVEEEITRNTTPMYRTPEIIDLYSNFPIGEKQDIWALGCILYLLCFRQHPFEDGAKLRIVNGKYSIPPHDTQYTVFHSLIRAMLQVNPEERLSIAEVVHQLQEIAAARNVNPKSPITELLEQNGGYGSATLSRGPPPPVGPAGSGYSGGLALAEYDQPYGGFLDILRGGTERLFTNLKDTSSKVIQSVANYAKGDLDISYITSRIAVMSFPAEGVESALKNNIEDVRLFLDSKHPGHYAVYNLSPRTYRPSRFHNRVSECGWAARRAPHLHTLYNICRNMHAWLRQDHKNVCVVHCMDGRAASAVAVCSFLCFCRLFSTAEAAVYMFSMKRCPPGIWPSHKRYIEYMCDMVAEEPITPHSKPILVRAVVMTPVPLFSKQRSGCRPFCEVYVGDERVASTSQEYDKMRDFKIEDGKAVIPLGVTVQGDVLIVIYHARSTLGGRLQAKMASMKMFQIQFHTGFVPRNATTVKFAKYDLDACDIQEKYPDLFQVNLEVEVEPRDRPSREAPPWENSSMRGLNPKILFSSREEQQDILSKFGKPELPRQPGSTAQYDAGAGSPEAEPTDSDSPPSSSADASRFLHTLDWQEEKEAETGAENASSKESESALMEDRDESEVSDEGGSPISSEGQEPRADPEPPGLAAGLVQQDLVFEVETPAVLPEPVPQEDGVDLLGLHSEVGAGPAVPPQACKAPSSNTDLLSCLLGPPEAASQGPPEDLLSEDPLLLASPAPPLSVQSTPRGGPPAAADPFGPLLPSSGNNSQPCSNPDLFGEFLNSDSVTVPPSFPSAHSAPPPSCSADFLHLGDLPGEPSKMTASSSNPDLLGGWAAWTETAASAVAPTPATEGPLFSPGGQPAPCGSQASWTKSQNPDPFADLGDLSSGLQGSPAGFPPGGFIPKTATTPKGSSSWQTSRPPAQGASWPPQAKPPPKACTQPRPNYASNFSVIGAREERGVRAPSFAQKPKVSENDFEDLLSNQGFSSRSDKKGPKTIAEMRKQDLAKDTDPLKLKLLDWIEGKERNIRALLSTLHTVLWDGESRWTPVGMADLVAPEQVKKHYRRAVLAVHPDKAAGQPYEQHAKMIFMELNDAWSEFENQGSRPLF

BaF3 = experiment: cells; type: functional, cell-based; conditions: Mus musculus, BaF3, 72 h
[8] = target: Mitogen-activated protein kinase 1 and 3 (ERK2 and ERK1) (Mus musculus) (UniProt P63085+Q63844); experiment: Inhibition of ERK1/2 phosphorylation in mouse BaF3 cells harboring Del19 mutant assessed as ERK1/2 phosphorylation at 10 to 1000 nM incubated for 8 hrs by Western blot analysis; type: cell-based; conditions: dose 10-1000 nM
Mitogen-activated protein kinase 1 and 3 (ERK2 and ERK1) (Mus musculus), sequence (P63085 whole entry, looked up): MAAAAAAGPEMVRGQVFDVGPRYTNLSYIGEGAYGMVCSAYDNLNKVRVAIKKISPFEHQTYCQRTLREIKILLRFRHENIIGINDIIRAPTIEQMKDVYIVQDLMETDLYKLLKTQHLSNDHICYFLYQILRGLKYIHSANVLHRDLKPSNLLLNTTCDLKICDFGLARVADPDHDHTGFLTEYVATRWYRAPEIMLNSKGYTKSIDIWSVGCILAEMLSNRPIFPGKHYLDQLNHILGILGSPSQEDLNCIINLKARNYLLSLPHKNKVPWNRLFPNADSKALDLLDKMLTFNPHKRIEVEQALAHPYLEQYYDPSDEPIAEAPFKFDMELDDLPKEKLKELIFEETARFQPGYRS
Mitogen-activated protein kinase 1 and 3 (ERK2 and ERK1) (Mus musculus), sequence (Q63844 whole entry, looked up): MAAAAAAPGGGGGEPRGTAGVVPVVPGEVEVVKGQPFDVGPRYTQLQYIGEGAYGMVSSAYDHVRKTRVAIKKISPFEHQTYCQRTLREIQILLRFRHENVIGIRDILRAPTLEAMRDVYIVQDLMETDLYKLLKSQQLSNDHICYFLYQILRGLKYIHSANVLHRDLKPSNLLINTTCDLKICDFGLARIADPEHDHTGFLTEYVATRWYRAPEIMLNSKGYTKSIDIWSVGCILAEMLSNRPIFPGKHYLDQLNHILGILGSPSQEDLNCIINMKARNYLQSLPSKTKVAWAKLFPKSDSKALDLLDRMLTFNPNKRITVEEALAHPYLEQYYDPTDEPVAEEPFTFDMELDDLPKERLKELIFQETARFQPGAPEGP

[9] = target: T2, Serine/threonine-protein kinase 17A (Homo sapiens) (UniProt Q9UEE5); experiment: Binding affinity to recombinant STK17A (unknown origin) assessed as change in melting temperature 10 uM by differential scanning fluorimetry
T2 sequence (whole entry): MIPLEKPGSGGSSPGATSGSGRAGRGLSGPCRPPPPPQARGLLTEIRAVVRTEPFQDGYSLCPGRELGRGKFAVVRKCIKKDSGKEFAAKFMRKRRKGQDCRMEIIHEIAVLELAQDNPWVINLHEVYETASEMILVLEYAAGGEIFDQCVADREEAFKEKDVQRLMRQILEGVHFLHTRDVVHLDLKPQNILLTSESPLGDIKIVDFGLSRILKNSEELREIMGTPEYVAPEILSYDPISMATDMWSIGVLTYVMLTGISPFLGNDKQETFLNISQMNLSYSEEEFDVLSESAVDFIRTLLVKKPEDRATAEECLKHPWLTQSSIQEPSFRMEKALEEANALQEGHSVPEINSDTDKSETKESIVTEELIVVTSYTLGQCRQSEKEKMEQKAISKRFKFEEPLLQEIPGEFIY

[10] = target: RAC-alpha serine/threonine-protein kinase (Mus musculus) (UniProt P31750); type: cell-based; conditions: BaF3, dose 10-1000 nM, time 8.0 hrs; remark: listed apart in the source

- inhibition [1]: Active
- inhibition [2]: Active
- inhibition [3]: Active
- pIC50 [4]: 5.75
- pIC50 [5]: 7.94
- pIC50 [6]: 7.73
- ΔTm [7]: > 3 °C
- pIC50 (BaF3): 6.92
- inhibition [8]: Active
- ΔTm [9]: > 3 °C
- inhibition [10]: Active
SMILES: COc1cc2ncnc(Nc3cc(Cl)c(F)cc3O)c2cc1O

From ChEMBL document CHEMBL5150044, “Macrocyclization of Quinazoline-Based EGFR Inhibitors Leads to Exclusive Mutant Selectivity for EGFR L858R and Del19” (J Med Chem, 2022)
